This experiment addresses T1, SiR (sulfite reductase; His-SiR) (Arabidopsis thaliana, UniProt Q9LZ66).
T1 construct: N-terminal His tag, expressed in E. coli Rosetta (DE3), expected size 68 kDa; truncations printed up to residue 642
T1 sequence (Q9LZ66 62-642): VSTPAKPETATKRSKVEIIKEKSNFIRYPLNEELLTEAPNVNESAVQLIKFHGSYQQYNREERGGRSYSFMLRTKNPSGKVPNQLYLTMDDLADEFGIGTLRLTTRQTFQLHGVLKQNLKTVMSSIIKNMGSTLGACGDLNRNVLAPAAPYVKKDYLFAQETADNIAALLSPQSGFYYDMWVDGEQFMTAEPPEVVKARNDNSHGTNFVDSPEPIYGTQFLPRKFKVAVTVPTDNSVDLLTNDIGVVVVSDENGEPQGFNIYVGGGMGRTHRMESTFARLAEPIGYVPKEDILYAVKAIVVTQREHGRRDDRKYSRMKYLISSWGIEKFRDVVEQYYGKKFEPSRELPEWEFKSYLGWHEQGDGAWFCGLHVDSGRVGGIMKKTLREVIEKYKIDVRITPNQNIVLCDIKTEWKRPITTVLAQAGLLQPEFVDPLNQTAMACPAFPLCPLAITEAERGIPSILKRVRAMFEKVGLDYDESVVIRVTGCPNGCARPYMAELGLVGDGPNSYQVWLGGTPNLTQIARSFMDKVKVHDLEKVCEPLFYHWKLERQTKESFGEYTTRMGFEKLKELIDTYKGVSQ
The experiment can be described thus: coupled assay: sulfide trapped as cysteine by O-acetylserine(thiol)lyase, ninhydrin, OD […] nm; sulfite varied. The experiment is classed as biochemical. The conditions noted are these: pH 7.5, 25 mM HEPES, RT, 1 h; methyl viologen reduced by dithionite as electron donor; O-acetylserine 5 mM; without LSU1.

Consider `O=S(O)O` [sulfite], for which the “coupled assay: sulfide trapped as cysteine by O-acetylserine(thiol)lyase, ninhyd” value is listed as “Specific activities of the enzyme at various concentrations of: electron donor methyl‐viologen (a), substrate sulfite (b)”.

The values above are taken from PMC11658185, “Analysis of the quadruple lsu mutant reveals molecular determinants of the role of LSU proteins in sulfur assimilation in Arabidopsis” (The Plant Journal, 2024).
